Measurements: PubChem BioAssay (NCI)
Several values for one entry are separate records, joined by “and”; a condition that tells them apart may be missing. Equal values may be shown once.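 Interpolation was linear, between the two tested concentrations surrounding the appropriate level; five concentrations were tested over 48 hours in 96-well plates. GI50 marks 50% less growth. TGI marks complete inhibition of growth.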

Assays:
Assay in all cases: DTP human tumour cell line panel, 48 h
K-562 leukemia = system: K-562 leukemia
UACC-257 melanoma = system: UACC-257 melanoma
OVCAR-4 ovarian = system: OVCAR-4 ovarian
SNB-19 CNS = system: SNB-19 CNS
MALME-3M melanoma = system: MALME-3M melanoma
NCI-H460 lung = system: NCI-H460 lung
RPMI-8226 leukemia = system: RPMI-8226 leukemia
MOLT-4 leukemia = system: MOLT-4 leukemia
NCI-H226 lung = system: NCI-H226 lung
COLO 205 colon = system: COLO 205 colon

| Structure (SMILES) | TGI (K-562 leukemia) | TGI (UACC-257 melanoma) | TGI (OVCAR-4 ovarian) | TGI (SNB-19 CNS) | TGI (MALME-3M melanoma) | TGI (NCI-H460 lung) | TGI (RPMI-8226 leukemia) | TGI (MOLT-4 leukemia) | TGI (NCI-H226 lung) | TGI (COLO 205 colon) | GI50 (K-562 leukemia) | GI50 (COLO 205 colon) | GI50 (UACC-257 melanoma) | GI50 (OVCAR-4 ovarian) | GI50 (SNB-19 CNS) | GI50 (MALME-3M melanoma) | GI50 (NCI-H460 lung) | GI50 (RPMI-8226 leukemia) | GI50 (MOLT-4 leukemia) | GI50 (NCI-H226 lung) |
| --- | --- | --- | --- | --- | --- | --- | --- | --- | --- | --- | --- | --- | --- | --- | --- | --- | --- | --- | --- | --- |
| Oc1ccc(Br)cc1C=Nc1ccc(N=Cc2cc(Br)ccc2O)cc1 | > 100 µM | > 100 µM | > 100 µM | > 100 µM | > 100 µM | > 100 µM | > 100 µM | > 100 µM | > 100 µM | – | – | – | – | – | – | – | – | – | – | – |
| COc1cc(C(=O)N2CCc3c([nH]c4c([N+](=O)[O-])c(OC)ccc34)C2C)cc(OC)c1OC (centres undefined) | > 100 µM | > 100 µM | > 100 µM | > 100 µM | – | > 100 µM | > 100 µM | > 100 µM | > 100 µM | > 100 µM | – | – | – | – | – | – | – | – | – | – |
| O=C(NO)c1ccc(CN(c2cnccn2)c2cnccn2)cc1 | > 100 µM | 22.2 µM | 97.7 µM | 72.5 µM | 23.8 µM | 43.6 µM | > 100 µM | > 100 µM | 65.7 µM | 8.17 µM | 13 µM | 2.96 µM | 5.77 µM | 16.1 µM | 17.7 µM | 7.9 µM | 14.8 µM | 8.68 µM | 17.7 µM | 20 µM |
| CC(=O)OCCOCNC(=S)N/N=C/c1ccc(Br)s1 | > 100 µM | > 100 µM | > 100 µM | > 100 µM | > 100 µM | > 100 µM | > 100 µM | > 100 µM | > 100 µM | > 100 µM | – | – | – | – | – | – | – | – | – | – |
| COc1ccc(Cc2cnc(NC(=O)c3ccc4c(c3)OCCO4)s2)cc1 | > 100 µM | > 100 µM | > 100 µM | 43.2 µM | > 61.6 µM | 26 µM | > 100 µM | > 100 µM | 88.5 µM | 0.319 µM | 0.0157 µM | 0.0289 µM | 4.83 µM | 0.0836 µM | 0.0523 µM | 1.52 µM | 0.0344 µM | 0.0499 µM | 0.0504 µM | 1.72 µM |
| CCCCCCCCCCN1CCC(N2CCCCC2)CC1 | 3.44 µM | 3.24 µM | 20.7 µM | 14.5 µM | 3.98 µM | 8.03 µM | 5.21 µM | 6.65 µM | 23.4 µM | 2.56 µM | 1.28 µM | 1.3 µM | 1.76 µM | 6.61 µM | 3.95 µM | 1.97 µM | 2.99 µM | 1.83 µM | 2.09 µM | 7.55 µM |
| COc1ccc(/C=C(/c2ccccc2)[N+](=O)[O-])cc1 | > 100 µM | 3.4 µM | 3.15 µM | 3.17 µM | 2.94 µM | 4.16 µM | 3.01 µM | 6.28 µM | 4.43 µM | 4.07 µM | 0.393 µM | 1.79 µM | 1.6 µM | 1.69 µM | 1.65 µM | 1.42 µM | 2.04 µM | 0.486 µM | 2.18 µM | 1.95 µM |
| Cc1cccc(N=C2NC(=O)C(CC(=O)Nc3cccc(C)c3C)S2)c1 (centres undefined) | – | > 100 µM | > 100 µM | > 100 µM | > 100 µM | > 100 µM | > 100 µM | > 100 µM | > 100 µM | > 100 µM | – | – | – | – | – | – | – | – | – | – |
| Cc1ncc([N+](=O)[O-])n1CCNS(=O)(=O)CCCn1ncnc1[N+](=O)[O-] | > 100 µM | > 100 µM | > 100 µM | – | > 100 µM | > 100 µM | > 100 µM | > 100 µM | > 100 µM | > 100 µM | – | – | – | – | – | – | – | – | – | – |
| Clc1ccc(N=CNc2ccc(-c3nc4ccccc4o3)cc2)cc1 | > 100 µM | > 100 µM | – | > 100 µM | – | 40.3 µM | > 100 µM | > 100 µM | > 100 µM | > 100 µM | 32.6 µM | 22.7 µM | 32.4 µM | – | 35.8 µM | – | 17.1 µM | 23.7 µM | 60.7 µM | 27.2 µM |
| CCOc1ccccc1NC(=O)C(=O)Cc1nc2ccccc2s1 | – | > 100 µM | > 100 µM | > 100 µM | > 100 µM | > 100 µM | – | > 100 µM | > 100 µM | > 100 µM | – | – | – | – | – | – | – | – | – | – |
| COC(=O)CCC1=C(CC(=O)OC)C(C)=N/C1=C\c1[nH]c(-c2ccc[nH]2)cc1OC | 12.5 µM | 17 µM | – | 31.1 µM | 23.3 µM | 13.7 µM | 4.91 µM | 20.1 µM | 19.6 µM | 16.3 µM | 2.7 µM | 3.79 µM | 4.47 µM | – | 11.6 µM | 6.8 µM | 3.72 µM | 1.44 µM | 2.31 µM | 3.29 µM |
| Nc1nc(N)c2cc(CNc3ccc(C(=O)NC(CC(=O)O)C(=O)O)c(Cl)c3)ccc2n1 (centres undefined) | > 500 µM | – | > 500 µM | > 500 µM | > 500 µM | 72.6 µM | > 500 µM | > 31.6 µM and 316 µM | > 500 µM | > 500 µM | 0.05 µM | 0.462 µM | – | – | 0.05 µM | > 500 µM | 0.05 µM | 2.77 µM | 0.05 µM | > 500 µM |
| CC(=O)OC1C2CCC1C1C2C2(Cl)C(Cl)=C(Cl)C1(Cl)C2(Cl)Cl (centres undefined) | – | 27.4 µM | 59.8 µM | 28.6 µM | 27.1 µM | 27.4 µM | 27.4 µM | 26.4 µM | 26.7 µM | 28.3 µM | – | – | – | – | – | – | – | – | – | – |
| CC1=C(c2cc(C(=O)Nc3ccc(Cl)cc3)nc(=S)[nH]2)Sc2ccccc2N1 | > 100 µM | > 100 µM | > 100 µM | > 100 µM | > 100 µM | > 100 µM | – | – | – | > 100 µM | – | – | – | – | – | – | – | – | – | – |
| CC(C)(C)OC(=O)N1N=NC2C1C1CC(OCc3ccccc3)(OCc3ccccc3)C2O1 (centres undefined) | 63.6 µM | 63.7 µM | > 100 µM | – | > 100 µM | > 100 µM | 63.6 µM | > 100 µM | 55.4 µM | > 100 µM | – | – | – | – | – | – | – | – | – | – |
| CC(C(=O)n1c2ccccc2c2ccccc21)N(c1ccccc1)c1ccccc1 (centres undefined) | 40.7 µM | 32.3 µM | – | > 100 µM | 28.5 µM | > 100 µM | 36.2 µM | 29.3 µM | 47.7 µM | 32 µM | – | – | – | – | – | – | – | – | – | – |
